Assay results as given in ChEMBL document CHEMBL5532671, “Leucosceptrane Sesterterpenoids as a New Type of Natural Immunosuppressive Agents in Treating Sepsis” (J Med Chem, 2024).
Blank lines part the entries; values can stand above or below the molecule they belong to. Activity calls are given as the source filed them. The calls are words filed in the database; no cut-off is given here.

Legend:
Mus musculus [1] = species: Mus musculus; test: Immunosuppressive activity in C57BL/6 female mouse T Cells isolated from spleen assessed as inhibition of anti-CD3/CD28-induced IFN-gamma secretion measured after 48 hrs by ELISA based assay relative to control; assay type: functional; conditions: T-cell
Mus musculus [2] = test: Antisepsis against LPS-induced sepsis mouse multiorgan damage model model assessed as reduction in multiorgan damage at 25 to 50 mg/kg, IG measured after 24 hrs by H and E staining assay; assay type: functional, organism-based; conditions: dose 25-50 mg/kg
T-cell [3] = test: Immunosuppressive activity in C57BL/6 female mouse T-cells isolated from spleen assessed as inhibition of LPS-induced IFN-gamma secretion at 20 uM treated for 48 hrs by ELISA based assay relative to control; assay type: functional; conditions: C57BL/6, T-cell
T-cell [4] = test: Immunosuppressive activity in C57BL/6 female mouse T-cells isolated from spleen assessed as inhibition of LPS-induced IFN-gamma secretion treated for 48 hrs by ELISA based assay; assay type: functional; conditions: C57BL/6, T-cell
Mus musculus [5] = test: Reduction in TNF-alpha level in LPS-induced sepsis mouse model peripheral blood at 25 mg/kg, IG measured after 12 hrs by ELISA based assay; assay type: functional, organism-based
T-cell [6] = test: Inhibition of proliferation of C57BL/6 female mouse T-cells isolated from spleen at 20 uM relative to control; assay type: functional; conditions: C57BL/6, T-cell
Mus musculus [7] = test: Reduction in IL-6 level in LPS-induced sepsis mouse model peripheral blood at 50 mg/kg, IG measured after 12 hrs by ELISA based assay; assay type: functional, organism-based
Mus musculus [8] = species: Mus musculus; test: Antisepsis against LPS-induced sepsis mouse model assessed as increase in survival rate of mouse treated IG measured upto 24 hrs; assay type: functional, organism-based
RAW264.7 [9] = test: Inhibition of cytokine secretion in mouse RAW264.7 cells assessed as suppression of LPS-induced IL-6 secretion at 40 uM measured after 48 hrs by ELISA based assay; assay type: functional, cell-based
RAW264.7 [10] = test: Inhibition of cytokine secretion in mouse RAW264.7 cells assessed as suppression of LPS-induced TNF-alpha at 40 uM secretion measured after 48 hrs by ELISA based assay; assay type: functional, cell-based
RAW264.7 [11] = test: Antiproliferative activity against mouse RAW264.7 cells at 2.5 to 40 uM; assay type: toxicity, cell-based; conditions: raw264.7, 40 µM, dose 2.5-40 µM
RAW264.7 [12] = test: Immunosuppressive activity in mouse RAW264.7 cells assessed as reduction in expression of ERK phosphorylation at 10 to 40 uM by Western blot analysis; assay type: functional, cell-based; conditions: dose 10-40 µM
RAW264.7 [13] = test: Immunosuppressive activity in mouse RAW264.7 cells assessed as reduction in expression of P70S6K phosphorylation at 10 to 40 uM by Western blot analysis; assay type: functional, cell-based; conditions: dose 10-40 µM
T-cell [14] = test: Inhibition of proliferation of C57BL/6 female mouse T-cells isolated from spleen; assay type: functional, cell-based; conditions: C57BL/6, T-cell
T-cell [15] = test: Blocked of cell cycle progression in anti-CD3/CD28 stimulated C57BL/6 female mouse T-cells isolated from spleen assessed as increase in cells at G0/G1 phase at 5 to 20 uM measured after 48 hrs by flow cytometry assay; assay type: functional, cell-based; conditions: dose 5-20 µM
T-cell [16] = test: Blocked of cell cycle progression in anti-CD3/CD28 stimulated C57BL/6 female mouse T-cells isolated from spleen assessed as decrease in cells at S phase measured after 48 hrs by flow cytometry assay; assay type: functional, cell-based; conditions: dose 5-20 µM
T-cell [17] = test: Blocked of cell cycle progression in anti-CD3/CD28 stimulated C57BL/6 female mouse T-cells isolated from spleen assessed as increase in cells at G2/M phase measured after 48 hrs by flow cytometry assay; assay type: functional, cell-based; conditions: dose 5-20 µM
RAW264.7 [18] = test: Inhibition of cytokine secretion in mouse RAW264.7 cells assessed as suppression of LPS-induced IL-6 secretion measured after 48 hrs by ELISA based assay; assay type: functional, cell-based; conditions: dose 2.5-40 µM
RAW264.7 [19] = test: Inhibition of cytokine secretion in mouse RAW264.7 cells assessed as suppression of LPS-induced TNF-alpha secretion measured after 48 hrs by ELISA based assay; assay type: functional, cell-based; conditions: dose 2.5-40 µM
RAW264.7 [20] = test: Immunosuppressive activity in mouse RAW264.7 cells assessed as reduction in expression of JNK phosphorylation at 10 to 40 uM by Western blot analysis; assay type: functional, cell-based; conditions: dose 10-40 µM
T-cell [21] = test: Immunosuppressive activity in C57BL/6 female mouse T-cells isolated from spleen assessed as inhibition of LPS-induced IFN-gamma secretion at 1 uM treated for 48 hrs by ELISA based assay relative to control; assay type: functional; conditions: C57BL/6, T-cell
T-cell [22] = test: Inhibition of proliferation of C57BL/6 female mouse T-cells isolated from spleen at 1 uM relative to control; assay type: functional; conditions: C57BL/6, T-cell

IC50 (T-cell [4]): 9.94 µM
Compound: CC(C)=CC(=O)[C@@]1(O)[C@@H](C)[C@@H]2CC[C@H](C)[C@H]2C(=O)[C@]1(O)[C@H](C)CC[C@@H]1OC(=O)C=C1C
Activity (Mus musculus [1]): Active
Activity (Mus musculus [2]): Active
inhibition at 20 µM (T-cell [3]): 54.3%
Activity (Mus musculus [5]): Active
inhibition at 20 µM (T-cell [6]): 14.7%
Activity (Mus musculus [7]): Active
Activity (Mus musculus [8]): Dose-Dependent Effect
inhibition (RAW264.7 [9]): Active
inhibition (RAW264.7 [10]): Active
Activity (RAW264.7 [11]): Non-Toxic
Activity (RAW264.7 [12]): Active
Activity (RAW264.7 [13]): Active

IC50 (T-cell [4]): 4.94 µM
Compound: CC(C)=C[C@H]1O[C@@](C)(CCc2occc2C)C2=C1[C@@H](C)[C@@H]1CC[C@H](C)[C@]1(O)C2=O
Activity (Mus musculus [1]): Active
inhibition at 20 µM (T-cell [3]): 73.7%
inhibition at 20 µM (T-cell [6]): 39.8%
IC50 (T-cell [14]): 32.5 µM
Activity (T-cell [15]): Active
Activity (T-cell [16]): Dose-Dependent Effect
Activity (T-cell [17]): Dose-Dependent Effect
inhibition (RAW264.7 [18]): Dose-Dependent Effect
inhibition (RAW264.7 [19]): Dose-Dependent Effect
Activity (RAW264.7 [11]): Non-Toxic
Activity (RAW264.7 [12]): Active
Activity (RAW264.7 [13]): Active
Activity (RAW264.7 [20]): Active

Compound: C/C=C/C[C@@H](C)[C@@H](O)[C@H]1C(=O)N[C@@H](CC)C(=O)N(C)CC(=O)N(C)[C@@H](CC(C)C)C(=O)N[C@@H](C(C)C)C(=O)N(C)[C@@H](CC(C)C)C(=O)N[C@@H](C)C(=O)N[C@H](C)C(=O)N(C)[C@@H](CC(C)C)C(=O)N(C)[C@@H](CC(C)C)C(=O)N(C)[C@@H](C(C)C)C(=O)N1C [CYCLOSPORINE]
inhibition at 1 µM (T-cell [21]): 99.2%
inhibition at 1 µM (T-cell [22]): 36.7%
